In US12427171B2, “Krill oil composition enriched in LPC-DHA and LPC-EPA” (Aker BioMarine Human Ingredients AS, priority 2020, dated 2025):

Experiment: Mouse retinal fatty acid composition after daily gavage of free DHA, sn-1 DHA LPC or sn-2 DHA LPC for 30 days (GC/MS)
Assay type: in vivo
Settings: for fatty acid composition of mouse retina, 12:0, Mean ± S.D. / fatty acid composition of mouse retina, 14:0, Mean ± S.D. / fatty acid composition of mouse retina, 16:0, Mean ± S.D. / fatty acid composition of mouse retina, 16:0 DMA, Mean ± S.D. / fatty acid composition of mouse retina, 16:1 (n-7), Mean ± S.D. / fatty acid composition of mouse retina, 17:1 (n-7), Mean ± S.D. / fatty acid composition of mouse retina, 18:0, Mean ± S.D. / fatty acid composition of mouse retina, 18:0 DMA, Mean ± S.D. / fatty acid composition of mouse retina, 18:1(n-7), Mean ± S.D. / fatty acid composition of mouse retina, 18:1 (n-9), Mean ± S.D. / fatty acid composition of mouse retina, 18:1 DMA, Mean ± S.D. / fatty acid composition of mouse retina, 18:2 (n-6), Mean ± S.D. / fatty acid composition of mouse retina, 18:3 (n-3), Mean ± S.D. / fatty acid composition of mouse retina, 18:3 (n-6), Mean ± S.D. / fatty acid composition of mouse retina, 20:0, Mean ± S.D. / fatty acid composition of mouse retina, 20:1 (n-9), Mean ± S.D. / fatty acid composition of mouse retina, 20:2 (n-6), Mean ± S.D. / fatty acid composition of mouse retina, 20:3 (n-6), Mean ± S.D. / fatty acid composition of mouse retina, 20:4 (n-6), Mean ± S.D. / fatty acid composition of mouse retina, 20:5 (n-3), Mean ± S.D. / fatty acid composition of mouse retina, 22:0, Mean ± S.D. / fatty acid composition of mouse retina, 22:2 (n-6), Mean ± S.D. / fatty acid composition of mouse retina, 22:4 (n-6), Mean ± S.D. / fatty acid composition of mouse retina, 22:5 (n-3), Mean ± S.D. / fatty acid composition of mouse retina, 22:6 (n-3), Mean ± S.D. / fatty acid composition of mouse retina, 24:1 (n-9), Mean ± S.D.: 1 mg DHA daily by gavage
Description: Normal male mice (C57 BL/J6, 16-week-old) were gavaged daily with 1 mg DHA in the form of free DHA, sn-1 DHA LPC, or sn-2 DHA LPC in 80 μL corn oil for 30 days. Retinal FA composition was analyzed by GC/MS. Only the values for arachidonic acid and the omega-3 FA are shown here (mean±SD, 8 animals/group). […] SD: standard deviation; sn-1 and sn-2: stereospecific numbering 1 and 2 respectively; LPC: lysophosphatidylcholine; DHA: docosahexaenoic acid.
Animals and dietary treatments: All studies in animals described here were approved by the Institutional Animal Care and Use Committee of the University of Illinois at Chicago. The retina samples were obtained from our previous studies on the brain accretion of DHA in mice and rats, which were published previously. Male Sprague-Dawley rats (8-week-old) were purchased from Harlan laboratories (Indianapolis, IN, USA). Male C57 BL/J6 mice (2-4-months-old) were purchased from Jackson Laboratories (Bar Harbor. Maine).
In the first study, male Sprague-Dawley rats (n=5 per group, 8-week-old) were gavaged daily with 10 mg of DHA (40 mg DHA/kg body weight) in the form of TAG-DHA (DHASCO algal oil, DSM Nutritional Products, Columbia, MD, USA), synthetic di-DHA PC (phosphatidylcholine), or synthetic LPC-DHA (sn-1 acyl) for 30 days. The DHA was distributed equally among the three positions of TAG-DHA [17]. […] In the second study, 4-month-old male C57 BL/J6 mice (n=8 per group) were gavaged daily with 40 mg DHA/kg body weight in the form of free (unesterified) DHA, sn-1 acyl LPC-DHA, or sn-2 acyl LPC-DHA for 30 days as described previously. In the third study, male C57 BL/J6 mice (2-months-old, n=5 per group) were fed diets enriched with natural or lipase-treated fish oil or hill oil for 30 days. The total amount of omega-3 FA (eicosapentaenoic acid (EPA)+DHA) was 2.64 g/kg diet in all the diets. The untreated hill oil contained 18% of total omega-3 FA as LPC, whereas the lipase-treated hill oil contained >80% of the total omega-3 FA as LPC. The fish oil diets contained no LPC-EPA or LPC-DHA. The animals were trans-cardially perfused with ice cold phosphate buffered saline under anesthesia and the retinas were collected and kept frozen at −80° C. until the analysis.
Analytical procedures: The total lipids of retina were extracted by Bligh and Dyer procedure and the fatty acids were methylated using methanolic HCl. The fatty acid analysis was carried out by GC/MS (gas chromatography/mass spectroscopy) using Shimadzu QP2010SE equipped with Supelco Omegawax column, as described previously. Total ion current in the range of 50-400 m/z was used for quantification of the methyl esters. For LC/MS/MS (liquid chromatography/tandem mass spectroscopy) analysis, the lipids were extracted by the procedure of Ivanova et al.. The analysis of molecular species of phospholipids was performed on an ABSciex QTRAP mass spectrometer (Redwood City, CA, USA) coupled with Agilent 2600 UPLC system (Santa Clara, CA, USA), by multiple reaction monitoring. The internal standards 17:0 LPC, di 17:0 PC, and di 17:0 PE (phosphatidylethanolamine) were used for the quantification of the corresponding molecular species, without applying any correction factors for the differences in the ion intensity of different molecular species.
Statistics and correlations: The significance of differences between treatment groups was determined by a one-way ANOVA, with Tukey post-hoc multiple comparison corrections or unpaired t-test between control and treated samples adjusted with Holm-Sidak method (Graphpad Prism 8.0, San Diego, CA, USA).

Structure (SMILES)	fatty acid composition of mouse retina, 12:0, Mean ± S.D.	fatty acid composition of mouse retina, 14:0, Mean ± S.D.	fatty acid composition of mouse retina, 16:0, Mean ± S.D.	fatty acid composition of mouse retina, 16:0 DMA, Mean ± S.D.	fatty acid composition of mouse retina, 16:1 (n-7), Mean ± S.D.	fatty acid composition of mouse retina, 17:1 (n-7), Mean ± S.D.	fatty acid composition of mouse retina, 18:0, Mean ± S.D.	fatty acid composition of mouse retina, 18:0 DMA, Mean ± S.D.	fatty acid composition of mouse retina, 18:1(n-7), Mean ± S.D.	fatty acid composition of mouse retina, 18:1 (n-9), Mean ± S.D.	fatty acid composition of mouse retina, 18:1 DMA, Mean ± S.D.	fatty acid composition of mouse retina, 18:2 (n-6), Mean ± S.D.	fatty acid composition of mouse retina, 18:3 (n-3), Mean ± S.D.	fatty acid composition of mouse retina, 18:3 (n-6), Mean ± S.D.	fatty acid composition of mouse retina, 20:0, Mean ± S.D.	fatty acid composition of mouse retina, 20:1 (n-9), Mean ± S.D.	fatty acid composition of mouse retina, 20:2 (n-6), Mean ± S.D.	fatty acid composition of mouse retina, 20:3 (n-6), Mean ± S.D.	fatty acid composition of mouse retina, 20:4 (n-6), Mean ± S.D.	fatty acid composition of mouse retina, 20:5 (n-3), Mean ± S.D.	also measured
CC/C=C\C/C=C\C/C=C\C/C=C\C/C=C\C/C=C\CCC(=O)O[C@H](CO)COP(=O)([O-])OCC[N+](C)(C)C [sn-2 DHA LPC]	0.73 ± 0.47	0.30 ± 0.17	14.62 ± 1.22	1.02 ± 0.32	0.47 ± 0.34	0.48 ± 0.38	15.44 ± 1.50	1.96 ± 0.30	3.82 ± 0.62	15.56 ± 1.16	0.78 ± 0.64	1.38 ± 0.49	0.51 ± 0.42	0.60 ± 0.47	1.18 ± 0.72	2.87 ± 0.60	0.88 ± 0.95	1.44 ± 0.35	5.75 ± 0.71	1.91 ± 1.40	fatty acid composition of mouse retina, 22:0, Mean ± S.D.: 1.24 ± 0.95; fatty acid composition of mouse retina, 22:2 (n-6), Mean ± S.D.: 1.00 ± 0.76; fatty acid composition of mouse retina, 22:4 (n-6), Mean ± S.D.: 2.23 ± 0.87; fatty acid composition of mouse retina, 22:5 (n-3), Mean ± S.D.: 0.79 ± 0.76; fatty acid composition of mouse retina, 22:6 (n-3), Mean ± S.D.: 22.57 ± 3.12; fatty acid composition of mouse retina, 24:1 (n-9), Mean ± S.D.: 0.49 ± 0.17
CC/C=C\C/C=C\C/C=C\C/C=C\C/C=C\C/C=C\CCC(=O)O [Free DHA, docosahexaenoic acid]	0.60 ± 0.35	0.20 ± 0.17	16.11 ± 1.56	0.75 ± 0.56	0.55 ± 0.28	0.43 ± 0.16	17.32 ± 0.66	2.10 ± 0.88	4.18 ± 0.34	17.14 ± 0.78	0.85 ± 0.56	0.99 ± 0.65	0.49 ± 0.15	0.49 ± 0.36	1.90 ± 0.64	3.42 ± 0.59	0.71 ± 0.50	1.30 ± 0.66	7.42 ± 0.72	2.03 ± 1.21	fatty acid composition of mouse retina, 22:0, Mean ± S.D.: 1.08 ± 0.59; fatty acid composition of mouse retina, 22:2 (n-6), Mean ± S.D.: 0.77 ± 0.51; fatty acid composition of mouse retina, 22:4 (n-6), Mean ± S.D.: 2.51 ± 0.85; fatty acid composition of mouse retina, 22:5 (n-3), Mean ± S.D.: 0.42 ± 0.15; fatty acid composition of mouse retina, 22:6 (n-3), Mean ± S.D.: 15.74 ± 1.57; fatty acid composition of mouse retina, 24:1 (n-9), Mean ± S.D.: 0.51 ± 0.25; effect on retinal DHA (mice, 1 mg DHA daily): no effect
